Values of other authors, collected in publication PMC3090270 (Structure (London, England : 1993), 2010).

Tests used:
cardiac myocytes = details: H2O2 treatment, ref Brennan et al., 2006
RI subunits = details: ref Huang et al., 1997b (D-AKAP1), 1997a (D-AKAP2), Reinton et al., 2000 (AKAP220), Gronholm et al., 2003 (Merlin), Li et al., 2001 (Pap7)

Row | binding to RI subunits (dual-specific) (RI subunits) | Compound | disulfide formation in RIα D/D (cardiac myocytes) | nuclear localization of PKA (cardiac myocytes)
1 | – | OO [H2O2] | increased disulfide bond formation | nuclear localization of PKA
2 | bind RI subunits | AKAP220: dual-specific AKAP | – | –
